Consider one compound from patent US20040071768A1, “Compositions and methods for treating cancer” (Inex Pharmaceuticals Corporation, priority 1999, published 2004).

The test system of data set [1] is NCl H460 non small cell lung xenografts. As to the kind of experiment: Multiple dose (q7dx3) anti-tumor activity, NCl H460 non small cell lung xenograft. The protocol: Female NCr nude mice were injected intravenously (q7dx3, beginning day 7) via the lateral tail vein. […] Mitomycin C (⋄) was prepared in saline and injected iv (q4dx3) at a dose of 3 mg/kg/dose. Drug-to-lipid ratio was 0.3/1 (w/w). Data points represent median tumor volume (n=6).
The anti-tumor activity of multiple (q7d3) dose schedules of liposomal vinorelbine was evaluated in several human xenograft tumor models. The goal of this series of studies was to identify the benefits of encapsulation by evaluating a series of doses and determining the therapeutic index in several xenograft models. Models were selected based on the following criteria: (1) activity in the single dose studies, (2) a comprehensive literature review of vinca alkaloid efficacy, (3) a desire to include at least 2-3 models that represent the clinical use of vinorelbine, and (4) a desire to include models with a range of sensitivity to vinorelbine so that improvements resulting from the use of the liposome formulation might be identified. Based on these criteria, MX-1 and MDA-MB-435 breast models, the NCl-H460 NSCLC model and the HT-29 and DLD-1 colon models were chosen.
Therapeutic index (TI) is a parameter that quantifies the “safety factor” of a particular therapy. TI is a ratio of a toxicity parameter and a biological activity parameter. Therefore, a higher ratio represents a greater potential margin of safety. For these studies, TI is defined as follows: […]
The minimal effective dose (MED) was set according to NCl activity criteria as the dose resulting in an optimal % T/C of 40. This information was derived from Table 7.

Data set [2] can be described thus: Maximum tolerable dose (MTD) of free and liposomal vinorelbine. The class given is in vivo, nude and ICR mice.
Method: Single and multiple (q7dx3) dose MTD studies were performed in tumor-bearing and non-tumor bearing NCr nu/nu mice, as well as healthy, outbred ICR mice.

Each structure is given as a SMILES string. Read-outs that look alike come from different tables or passages of the source.

With `CCC1=C[C@@H]2CN(C1)Cc1c([nH]c3ccccc13)[C@@](C(=O)OC)(c1cc3c(cc1OC)N(C)[C@H]1[C@@](O)(C(=O)OC)[C@H](OC(C)=O)[C@]4(CC)C=CCN5CC[C@]31[C@@H]54)C2` [VRL, 5′-noranhydrovinblastine], the “% T/C (optimal % T/C following final treatment)” value in data set [1] (5 mg/kg i.v. q7dx3) amounted to 63%; in data set [1] (10 mg/kg i.v. q7dx3), 45%; in data set [1] (20 mg/kg i.v. q7dx3) it was 30%; in data set [1] (30 mg/kg i.v. q7dx3), 10%. The “DRD (drug related deaths, n = 6)” value in data set [1] (5 mg/kg i.v. q7dx3) came out at 0; in data set [1] (10 mg/kg i.v. q7dx3) it was 0; in data set [1] (20 mg/kg i.v. q7dx3), 0; in data set [1] (30 mg/kg i.v. q7dx3) it was 2. Besides, the “NCI Score” value in data set [1] (5 mg/kg i.v. q7dx3) amounted to 0; in data set [1] (10 mg/kg i.v. q7dx3), 0; in data set [1] (20 mg/kg i.v. q7dx3), 1; in data set [1] (30 mg/kg i.v. q7dx3) it was 1. Also, the “T-C (tumor growth delay to 1000 mm^3)” value was 2.8 in data set [1] (5 mg/kg i.v. q7dx3), 6.2 in data set [1] (10 mg/kg i.v. q7dx3), 9.1 in data set [1] (20 mg/kg i.v. q7dx3) and 19.1 in data set [1] (30 mg/kg i.v. q7dx3). Also, the “TF (tumor free animals at the end of study)” value in data set [1] (5 mg/kg i.v. q7dx3, n=6) is 0; in data set [1] (10 mg/kg i.v. q7dx3, n=6), 0; in data set [1] (20 mg/kg i.v. q7dx3, n=6), 0; in data set [1] (30 mg/kg i.v. q7dx3, n=6) it was 0. For the same compound, the MTD is 25 to 30 mg/kg in data set [2] (NCr nu/nu and ICR, mouse, in vivo, intravenous, q7dx3 dose schedule, estimated, read-out: maximum tolerated dose (MTD)); 30 mg/kg in data set [2] (NCr nu/nu and ICR, mouse, in vivo, single dose, estimated, read-out: maximum tolerated dose (MTD)); 27.5 mg/kg/dose in data set [2] (given intravenously on a q7dx3 schedule). Moreover, in data set [2] (q7dx3, derived from Table 5), the “MTD used in the calculation of therapeutic index (TI)” value is listed as 27.5 mg/kg.
